{
  "source": "patent US10507218B2",
  "about": "“Treatment of cardiovascular disease by using gallium compounds to bind calcified lesions” (LIPIDRISK, LLC, priority 2018, dated 2019)",
  "key": {"[1]": {"experiment": "Treatment of rheumatoid arthritis of the wrist by topical gallium nitrate solution (single patient)", "assay_type": "in vivo, human", "conditions": "about 100 mg", "method": "Patient had persistent rheumatoid arthritis of the wrist for over six months and was treated with a single dose of ¾ ml of 14% gallium nitrate solution, about 100 mg, as a topical application for one hour. […] Again, the pain elimination from reduced inflammation is an indicator that the gallium ions bonded to the calcified structures at an inflammation site."}, "[2]": {"experiment": "Treatment of plantar fasciitis by topical gallium nitrate solution (single patient)", "assay_type": "in vivo, human", "method": "The patient was having continuous severe pain from the plantar fasciitis for over six months after treatments with injected cortisone, special braces and hydrotherapy none of which gave relief.\nPatient was treated with 5 ml's of 14% gallium nitrate solution applied to the bottom of the affected foot for 30 minutes every other day for three treatments. After each treatment the remaining solution was washed off and the exact amount of absorbed gallium nitrate was not measured. […] The plantar fasciitis has not returned for 10 years. The pain elimination from reduced inflammation is an indicator that the gallium ions bonded to the calcified structures at an inflammation site."}, "[3]": {"design": "dose or concentration left out as unconfirmed", "conditions": "of gallium nitrate over 5-7 days; cited from earlier work"}, "[4]": {"conditions": "animal studies; cited from earlier work"}},
  "data": [
    {"smiles": "O=[N+]([O-])[O-].O=[N+]([O-])[O-].O=[N+]([O-])[O-].[Ga+3]", "note": "[gallium nitrate]", "values": [
      {"measurement": "immediate pain relief", "setting": "[1]; single topical dose of ¾ ml of 14% gallium nitrate solution, one hour", "value": "Some pain relief was noticed immediately"},
      {"measurement": "arthritic pain after two months", "setting": "[1]; single topical dose", "value": "the arthritic pain was not noticeable"},
      {"measurement": "duration without arthritic pain in the wrist", "setting": "[1]; single topical dose", "value": "has not experienced arthritic pain in the wrist for two years"},
      {"measurement": "pain relief after each treatment", "setting": "[2]; 5 ml of 14% gallium nitrate solution on bottom of affected foot, 30 minutes, every other day, three treatments", "value": "complete relief of pain for several hours after each treatment"},
      {"measurement": "time without return of plantar fasciitis", "setting": "[2]; after three topical treatments", "value": "≥ 10", "unit": "years"},
      {"measurement": "pain outcome after the third treatment", "setting": "[2]; one week after third topical treatment", "value": "the pain disappeared completely one week later"},
      {"measurement": "reduction of calcium excretion", "setting": "[3]", "value": "70+18%"},
      {"measurement": "carbonyl oxidation and protein nitration", "setting": "[4]", "value": "reduction of carbonyl oxidation and protein nitration"}
    ]}
  ]
}
